Test results as given in patent US20110123530A1, “COMPOSITIONS AND METHODS FOR TREATING AND DIAGNOSING ASTHMA” (priority 2008, published 2011).

Key:
Assay type in all cases: in vivo, human
Settings in all cases: asthmatics on inhaled corticosteroids (N = 51) vs No ICS (N = 49)
serum IgE = test: Serum IgE (clinical laboratory or ELISA)
Experimental: (§1) Serum IgE was measured by UCSF clinical laboratories or by ELISA using a human serum IgE ELISA kit according to manufacturer's instructions (Bethyl Laboratories). Serum CEA was measured using a human serum CEA ELISA kit according to manufacturer's instructions (Alpco Diagnostics). We developed an electrochemiluminescent assay (ECLA) to measure serum periostin using anti-periostin antibodies (R&D systems). Briefly, monoclonal anti-periostin was coated onto plates at 1.5 micrograms/ml in sodium carbonate buffer, pH 9.6 overnight at 4° C. Plates were blocked in assay buffer (1×PBS pH 7.4, 0.35 M NaCl, 0.5% BSA, 0.05% Tween 20, 0.25% CHAPS, 5 mM EDTA, 15PPM Proclin)+3% BSA for 2 hours at room temperature, then washed 4× with TBST (Tris-buffered saline+0.1% Tween-20). Serum was diluted 1:5 in assay buffer and incubated with agitation at room temperature for 2 h, then washed 4× with TBST. Recombinant periostin (R&D Systems) was used to establish a standard range. […] Reading buffer (Meso Scale Devices) was added and electrochemiluminescence was read (Meso Scale Devices). […] In addition, we measured IgE and YKL-40, a serum marker previously described to be elevated in some asthmatics, in these same sera. […]

serum CEA = test: Serum CEA ELISA
Experimental: as §1

serum periostin = test: Serum periostin electrochemiluminescent assay (ECLA)
Experimental: as §1

serum YKL-40 = test: Serum YKL-40 immunoassay
Description: To determine whether elevated levels of soluble periostin and CEA proteins were detectable in peripheral blood, we examined periostin and CEA in sera from 100 asthmatics and 48 healthy controls using immunoassays. In addition, we measured IgE and YKL-40, a serum marker previously described to be elevated in some asthmatics, in these same sera. […] However, in all cases, there was substantial overlap in serum levels of each biomarker between groups. As shown in Example 8, inhaled corticosteroid (ICS) treatment reduces the bronchial epithelial expression of periostin in asthmatics that have elevated periostin at baseline (see also [8]). Of the 100 asthmatics whose serum we examined, 51 were taking inhaled corticosteroids (ICS) and 49 were not. […] Nevertheless, asthmatics on ICS had higher median serum levels of IgE, periostin, and CEA than healthy controls (Table 13). As shown in FIG. 4 and Table 10, 21/23 asthmatics positive for the bronchial epithelial IL-13 signature (“IL-13 high”) had serum IgE levels greater than 100 IU/ml, although a proportion of “IL-13 low” asthmatics also had elevated IgE. […] As airway expression levels of periostin and CEACAM5 were highly correlated in “IL-13 high” asthmatics, we examined the correlation between serum periostin and CEA across all asthmatics (FIG. 13L).

Compound: CCC(=O)O[C@]1(C(=O)SCF)[C@H](C)C[C@H]2[C@@H]3C[C@H](F)C4=CC(=O)C=C[C@]4(C)[C@@]3(F)[C@@H](O)C[C@@]21C [fluticasone, fluticasone propionate]
- IgE, level of serum biomarker, median (range) (serum IgE): 132 (1-2098) IU/ml
- CEA, level of serum biomarker, median (range) (serum CEA): 1.9 (<0.2-21*) ng/ml
- Periostin, level of serum biomarker, median (range) (serum periostin): 48 (0-117) ng/ml
- YKL-49, level of serum biomarker, median (range) (serum YKL-40): 72 (24-494) ng/ml
